# Patent US20250320193A1, “OXOISOINDOLINYL SUBSTITUTED PIPERIDINEDIONE DERIVATIVE AND USE THEREOF” (GLUETACS THERAPEUTICS (SHANGHAI) CO., LTD., priority 2022, published 2025)
# Molecular target: human Cereblon WT GST-tagged protein (Homo sapiens (Human), UniProt Q96SW2)
# Assay: CRBN-binding affinity, HTRF (CEREBLON BINDING kit, CISBIO)
# Conditions: HTRF inhibitory activity
# Description: I. Determination of CRBN-binding affinity of compounds of the present disclosure:
# The CEREBLON BINDING kits (specification: 10,000 tests; product number: Catalog #64BDCRBNPEH; CISBIO company) was used to determine the CRBN binding ability of the compounds to be tested through a HTRF method (homogeneous time-resolved fluorescence). The specific methods are as follows: • 1. […] Then, 2.5 μL of human Cereblon WT GST-tagged protein solution was added to each well. Finally, 5 μL of the thoroughly mixed Thalidomide-Red reagent and GST Eu antibody working solution were added to each of the aforementioned wells. […] The blank control wells were sequentially added with 2.5 μL of diluent #9 (1X) solution, 2.5 μL of PROTAC binding buffer, and 5 μL of thoroughly mixed Thalidomide-Red reagent and GST Eu antibody working solution. • 4.
# The corresponding CRBN binding inhibition rate was calculated using the following method: […]
# OD 620 nmcompound is the absorbance value of each well of the compounds to be tested of the present disclosure at an emission wavelength of 620 nm. […] OD 620 nmcontrol is the absorbance value of the blank control well at an emission wavelength of 620 nm. […] OD 620 nmStd0 is the absorbance value of the solvent control well at an emission wavelength of 620 nm.
# Sequence of human Cereblon WT GST-tagged protein (Q96SW2 whole entry): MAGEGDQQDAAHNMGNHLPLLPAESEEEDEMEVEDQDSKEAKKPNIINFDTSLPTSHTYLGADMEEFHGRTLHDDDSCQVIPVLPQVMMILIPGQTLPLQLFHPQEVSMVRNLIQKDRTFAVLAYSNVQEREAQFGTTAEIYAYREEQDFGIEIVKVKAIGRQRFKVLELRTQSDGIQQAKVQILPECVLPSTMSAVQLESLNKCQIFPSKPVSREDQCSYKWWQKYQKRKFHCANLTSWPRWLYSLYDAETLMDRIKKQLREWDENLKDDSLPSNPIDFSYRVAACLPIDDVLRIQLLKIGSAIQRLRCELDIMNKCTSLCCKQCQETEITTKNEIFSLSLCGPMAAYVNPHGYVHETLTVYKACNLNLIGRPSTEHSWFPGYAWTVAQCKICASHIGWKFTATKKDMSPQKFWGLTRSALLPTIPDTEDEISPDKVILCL
row,Compound,IC50 [nM]
1,"O=C1CCC(N2Cc3ccc(CN4CCN(C(c5ccccc5)c5ccccc5)CC4)cc3C2=O)C(=O)N1 (stereo not shown) [GT-05686, 3-(6-((4-benzhydrylpiperazin-1-yl)methyl)-1-oxoisoindolin-2-yl)piperidine-2,6-dione]",1000 to 1900
2,"O=C1CCC(N2Cc3cc(CN4CCN(C(c5ccccn5)c5ccccn5)CC4)cc(F)c3C2=O)C(=O)N1 (stereo not shown) [GT-05714, 3-(5-((4-(di(pyridin-2-yl)methyl)piperazin-1-yl)methyl)-7-fluoro-1-oxoisoindolin-2-yl)piperidine-2,6-dione]",1000 to 1900
3,"O=C1CCC(N2Cc3c(CN4CCN(C(c5ccccn5)c5ccccn5)CC4)cccc3C2=O)C(=O)N1 (stereo not shown) [GT-05715, 3-(4-((4-(di(pyridin-2-yl)methyl)piperazin-1-yl)methyl)-1-oxoisoindolin-2-yl)piperidine-2,6-dione]",1000 to 1900
4,"O=C1CCC(N2Cc3cccc(CN4CCN(C(c5ccc(F)cc5)c5ccc(F)cc5)CC4)c3C2=O)C(=O)N1 (stereo not shown) [GT-05720, 3-(7-((4-(bis(4-fluorophenyl)methyl)piperazin-1-yl)methyl)-1-oxoisoindolin-2-yl)piperidine-2,6-dione]",1000 to 1900
5,"O=C1CCC(N2C(=O)c3ccc(CN4C5CC4CN(C(c4ccccc4)c4ccccc4)C5)cc3C2=O)C(=O)N1 (stereo not shown) [GT-05728, 5-((3-benzhydryl-3,6-diazabicyclo[3.1.1]heptan-6-yl)methyl)-2-(2,6-dioxopiperidin-3-yl) isoindoline-1,3-dione]",1000 to 1900
6,"O=C1CCC(N2Cc3ccc(CN4CCN(C(c5ccc(Cl)cc5)c5ccc(Cl)cc5)CC4)cc3C2=O)C(=O)N1 (stereo not shown) [GT-05735, 3-(6-((4-(bis(4-chlorophenyl)methyl)piperazin-1-yl)methyl)-1-oxoisoindolin-2-yl)piperidine-2,6-dione]",1000 to 1900
7,"O=C1CCC(N2Cc3cccc(CN4CCN(C(c5ccc(Cl)cc5)c5ccc(Cl)cc5)CC4)c3C2=O)C(=O)N1 (stereo not shown) [GT-05736, 3-(7-((4-(bis(4-chlorophenyl)methyl)piperazin-1-yl)methyl)-1-oxoisoindolin-2-yl)piperidine-2,6-dione]",1000 to 1900
8,"O=C1CCC(N2Cc3cc(NN4CCN(C(c5ccccc5)c5ccccc5)CC4)ccc3C2=O)C(=O)N1 (stereo not shown) [GT-05743, 3-(5-((4-benzhydrylpiperazin-1-yl)amino)-1-oxoisoindolin-2-yl)piperidine-2,6-dione]",1000 to 1900
9,"O=C1CCC(N2Cc3cc(N4CC5CCC(C4)N5C(c4ccccc4)c4ccccc4)ccc3C2=O)C(=O)N1 (stereo not shown) [GT-05865, 3-(5-(8-benzhydryl-3,8-diazabicyclo[3.2.1]octan-3-yl)-1-oxoisoindolin-2-yl)piperidine-2,6-dione]",500 to 1000
10,"O=C1CCC(N2Cc3cc(-c4ccc(CN5CCN(C(c6ccccc6)c6ccccc6)CC5)cc4)ccc3C2=O)C(=O)N1 (stereo not shown) [GT-05867, 3-(5-(4-((4-benzhydrylpiperazin-1-yl)methyl)phenyl)-1-oxoisoindolin-2-yl)piperidine-2,6-dione]",1000 to 1900
11,"O=C1CCC(N2Cc3cc(C(=O)N4CCN(C(c5ccc(Cl)cc5)c5ccc(Cl)cc5)CC4)cc(F)c3C2=O)C(=O)N1 (stereo not shown) [GT-05887, 3-(5-(4-(bis(4-chlorophenyl)methyl)piperazine-1-carbonyl)-7-fluoro-1-oxoisoindolin-2-yl)piperidine-2,6-dione]",1000 to 1900
12,"O=C1CCC(N2Cc3ccc(C(=O)N4CCN(C(c5ccc(Cl)cc5)c5ccc(Cl)cc5)CC4)cc3C2=O)C(=O)N1 (stereo not shown) [GT-05888, 3-(6-(4-(bis(4-chlorophenyl)methyl)piperazine-1-carbonyl)-1-oxoisoindolin-2-yl)piperidine-2,6-dione]",1000 to 1900
13,"O=C1CCC(N2Cc3cc(CN4CC5CCC(C4)N5C(c4ccccc4)c4ccccc4)c(F)cc3C2=O)C(=O)N1 (stereo not shown) [GT-05896, 3-(5-((8-benzhydryl-3,8-diazabicyclo[3.2.1]octan-3-yl)methyl)-6-fluoro-1-oxoisoindolin-2-yl)piperidine-2,6-dione]",500 to 1000
14,"O=C1CCC(N2Cc3cc(CN4CC5CCC(C4)N5C(c4ccccc4)c4ccccc4)cc(F)c3C2=O)C(=O)N1 (stereo not shown) [GT-05897, 3-(5-((8-benzhydryl-3,8-diazabicyclo[3.2.1]octan-3-yl)methyl)-7-fluoro-1-oxoisoindolin-2-yl)piperidine-2,6-dione]",500 to 1000

# Continued, values first:
row,IC50 [nM],Compound
1,1000 to 1900,"O=C1CCC(N2Cc3cc(CN4CCN(C(c5ccc(Cl)cc5)c5ccc(Cl)cc5)CC4)cc(F)c3C2=O)C(=O)N1 (stereo not shown) [GT-03568, 3-(5-((4-(bis(4-chlorophenyl)methyl)piperazin-1-yl)methyl)-7-fluoro-1-oxoisoindolin-2-yl)piperidine-2,6-dione]"
2,< 500,"O=C1CCC(N2Cc3c(ccc(CN4C[C@H]5C[C@@H]4CN5C(c4ccccc4)c4ccccc4)c3F)C2=O)C(=O)N1 (stereo partly drawn) [GT-03573, 3-(5-(((1R,4R)-5-benzhydryl-2,5-diazabicyclo[2.2.1]heptan-2-yl)methyl)-4-fluoro-1-oxoisoindolin-2-yl)piperidine-2,6-dione]"
3,< 500,"O=C1CCC(N2Cc3cc(CN4C[C@H]5C[C@@H]4CN5C(c4ccccc4)c4ccccc4)cc(F)c3C2=O)C(=O)N1 (stereo partly drawn) [GT-03576, 3-(5-(((1R,4R)-5-benzhydryl-2,5-diazabicyclo[2.2.1]heptan-2-yl)methyl)-7-fluoro-1-oxoisoindolin-2-yl)piperidine-2,6-dione]"
4,< 500,"C[C@@H]1CN(C(c2ccccc2)c2ccccc2)CCN1Cc1cc(F)c2c(c1)CN(C1CCC(=O)NC1=O)C2=O (stereo partly drawn) [GT-03577, 3-(5-(((R)-4-benzhydryl-2-methylpiperazin-1-yl)methyl)-7-fluoro-1-oxoisoindolin-2-yl)piperidine-2,6-dione]"
5,500 to 1000,"O=C1CCC(N2Cc3c(CN4CCN(C(c5ccccc5)c5ccccc5)CC4)cccc3C2=O)C(=O)N1 (stereo not shown) [GT-03646, 3-(4-((4-benzhydrylpiperazin-1-yl)methyl)-1-oxoisoindolin-2-yl)piperidine-2,6-dione]"
6,< 500,"O=C1CCC(N2Cc3cc(CN4CCN(C(c5ccccc5)c5ccccn5)CC4)cc(F)c3C2=O)C(=O)N1 (stereo not shown) [GT-03834, 3-(7-fluoro-1-oxo-5-((4-(phenyl(pyridin-2-yl)methyl)piperazin-1-yl)methyl)isoindolin-2-yl)piperidine-2,6-dione]"
7,< 500,"CC1CN(C(c2ccccc2)c2ccccc2)CC(C)N1Cc1cc(F)c2c(c1)CN(C1CCC(=O)NC1=O)C2=O (stereo not shown) [GT-03874, 3-(5-((4-benzhydryl-2,6-dimethylpiperazin-1-yl)methyl)-7-fluoro-1-oxoisoindolin-2-yl)piperidine-2,6-dione]"
8,500 to 1000,"O=C1CCC(N2Cc3c(CN4CCN(C(c5cccc(F)c5)c5cccc(F)c5)CC4)cccc3C2=O)C(=O)N1 (stereo not shown) [GT-03875, 3-(4-((4-(bis(3-fluorophenyl)methyl)piperazin-1-yl)methyl)-1-oxoisoindolin-2-yl)piperidine-2,6-dione]"
9,< 500,"CC1(C)CN(Cc2ccc3c(c2)CN(C2CCC(=O)NC2=O)C3=O)CCN1C(c1ccccc1)c1ccccc1 (stereo not shown) [GT-04165, 3-(5-((4-benzhydryl-3,3-dimethylpiperazin-1-yl)methyl)-1-oxoisoindolin-2-yl)piperidine-2,6-dione]"
10,500 to 1000,"CC1(C)CN(Cc2ccc3c(c2F)CN(C2CCC(=O)NC2=O)C3=O)CCN1C(c1ccccc1)c1ccccc1 (stereo not shown) [GT-04166, 3-(5-((4-benzhydryl-3,3-dimethylpiperazin-1-yl)methyl)-4-fluoro-1-oxoisoindolin-2-yl)piperidine-2,6-dione]"
11,< 500,"O=C1CCC(N2Cc3cc(CN4C(=O)c5cccc6cccc(c56)C4=O)ccc3C2=O)C(=O)N1 (stereo not shown) [GT-04244, 2-((2-(2,6-dioxopiperidin-3-yl)-1-oxoisoindolin-5-yl)methyl)-1H-benzo[de]isoquinoline-1,3(2H)-dione]"
12,< 500,"O=C1CCC(N2Cc3c(ccc(CN4CCN(C(c5cccnc5)c5cccnc5)CC4)c3F)C2=O)C(=O)N1 (stereo not shown) [GT-05716, 3-(5-((4-(di(pyridin-3-yl)methyl)piperazin-1-yl)methyl)-4-fluoro-1-oxoisoindolin-2-yl)piperidine-2,6-dione]"
13,500 to 1000,"O=C1CCC(N2Cc3ccc(CN4CCN(C(c5ccc(F)cc5)c5ccc(F)cc5)CC4)cc3C2=O)C(=O)N1 (stereo not shown) [GT-05719, 3-(6-((4-(bis(4-fluorophenyl)methyl)piperazin-1-yl)methyl)-1-oxoisoindolin-2-yl)piperidine-2,6-dione]"
14,500 to 1000,"O=C1CCC(N2Cc3c(C(=O)N4CCN(C(c5ccccc5)c5ccccc5)CC4)cccc3C2=O)C(=O)N1 (stereo not shown) [GT-05721, 3-(4-(4-benzhydrylpiperazine-1-carbonyl)-1-oxoisoindolin-2-yl)piperidine-2,6-dione]"
15,< 500,"O=C1CCC(N2Cc3cc(C=C4CN(C(c5ccccc5)c5ccccc5)C4)ccc3C2=O)C(=O)N1 (stereo not shown) [GT-05745, 3-(5-((1-benzhydrylazetidin-3-ylidene)methyl)-1-oxoisoindolin-2-yl)piperidine-2,6-dione]"
16,< 500,"O=C1CCC(N2Cc3cc(NC4CCN(C(c5ccccc5)c5ccccc5)CC4)ccc3C2=O)C(=O)N1 (stereo not shown) [GT-05864, 3-(5-((1-benzhydrylpiperidin-4-yl)amino)-1-oxoisoindolin-2-yl)piperidine-2,6-dione]"
17,< 500,"O=C1CCC(N2Cc3cc(CN4C[C@@H]5C[C@H]4CN5C(c4ccccc4)c4ccccc4)cc(F)c3C2=O)C(=O)N1 (stereo partly drawn) [GT-05895, 3-(5-(((1S,4S)-5-benzhydryl-2,5-diazabicyclo[2.2.1]heptan-2-yl)methyl)-7-fluoro-1-oxoisoindolin-2-yl)piperidine-2,6-dione]"
